Results taken from ChEMBL document CHEMBL3627608, “Crystal structures of human RIP2 kinase catalytic domain complexed with ATP-competitive inhibitors: Foundations for understanding inhibitor selectivity” (Bioorg Med Chem, 2015).

How the values were obtained:
[1] = molecular target: T1, Serine/threonine-protein kinase TAO1 (Homo sapiens) (UniProt Q7L7X3); experiment: Inhibition of TAOK1 (unknown origin) at 10 uM after 120 mins P33 radiolabeled kinase activity assay
T1 sequence (whole entry): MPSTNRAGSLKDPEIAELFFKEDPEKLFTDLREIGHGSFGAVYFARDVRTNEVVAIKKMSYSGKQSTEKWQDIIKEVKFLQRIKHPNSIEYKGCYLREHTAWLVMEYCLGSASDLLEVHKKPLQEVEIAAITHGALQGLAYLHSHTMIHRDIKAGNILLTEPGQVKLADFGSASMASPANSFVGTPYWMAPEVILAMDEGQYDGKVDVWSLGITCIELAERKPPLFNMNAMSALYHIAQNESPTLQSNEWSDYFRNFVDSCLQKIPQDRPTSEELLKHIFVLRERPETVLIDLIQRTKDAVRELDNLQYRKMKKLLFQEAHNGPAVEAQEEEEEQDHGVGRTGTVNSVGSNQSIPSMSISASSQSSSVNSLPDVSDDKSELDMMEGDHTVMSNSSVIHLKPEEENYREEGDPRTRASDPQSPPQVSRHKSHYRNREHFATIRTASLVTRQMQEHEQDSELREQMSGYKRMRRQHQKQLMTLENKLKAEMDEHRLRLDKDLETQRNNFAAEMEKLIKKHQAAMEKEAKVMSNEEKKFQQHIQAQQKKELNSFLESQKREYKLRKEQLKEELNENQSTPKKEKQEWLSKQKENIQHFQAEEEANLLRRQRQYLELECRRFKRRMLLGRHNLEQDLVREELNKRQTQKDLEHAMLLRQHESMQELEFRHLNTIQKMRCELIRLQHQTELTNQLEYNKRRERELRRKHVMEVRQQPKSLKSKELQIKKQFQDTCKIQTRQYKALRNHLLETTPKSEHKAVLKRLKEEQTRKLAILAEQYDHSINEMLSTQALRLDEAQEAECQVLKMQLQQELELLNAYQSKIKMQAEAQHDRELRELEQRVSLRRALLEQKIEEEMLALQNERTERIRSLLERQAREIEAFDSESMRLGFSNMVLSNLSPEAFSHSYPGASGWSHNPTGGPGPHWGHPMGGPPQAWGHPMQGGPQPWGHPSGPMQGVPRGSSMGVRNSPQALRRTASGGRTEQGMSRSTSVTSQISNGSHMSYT

[2] = molecular target: Receptor-interacting serine/threonine-protein kinase 2 (Homo sapiens, UniProt O43353); experiment: Inhibition of full-length FLAG-6His-TEV tagged human RIP2 expressed in Sf9 cells assessed as reduction in autophosphorylation pre-incubated for 30 mins followed by incubation with ATP for 2 hrs by ADP-Glo assay
[3] = molecular target: T2, Serine/threonine-protein kinase LATS1 (Homo sapiens) (UniProt O95835); experiment: Inhibition of LATS (unknown origin) at 10 uM after 120 mins P33 radiolabeled kinase activity assay
T2 sequence (whole entry): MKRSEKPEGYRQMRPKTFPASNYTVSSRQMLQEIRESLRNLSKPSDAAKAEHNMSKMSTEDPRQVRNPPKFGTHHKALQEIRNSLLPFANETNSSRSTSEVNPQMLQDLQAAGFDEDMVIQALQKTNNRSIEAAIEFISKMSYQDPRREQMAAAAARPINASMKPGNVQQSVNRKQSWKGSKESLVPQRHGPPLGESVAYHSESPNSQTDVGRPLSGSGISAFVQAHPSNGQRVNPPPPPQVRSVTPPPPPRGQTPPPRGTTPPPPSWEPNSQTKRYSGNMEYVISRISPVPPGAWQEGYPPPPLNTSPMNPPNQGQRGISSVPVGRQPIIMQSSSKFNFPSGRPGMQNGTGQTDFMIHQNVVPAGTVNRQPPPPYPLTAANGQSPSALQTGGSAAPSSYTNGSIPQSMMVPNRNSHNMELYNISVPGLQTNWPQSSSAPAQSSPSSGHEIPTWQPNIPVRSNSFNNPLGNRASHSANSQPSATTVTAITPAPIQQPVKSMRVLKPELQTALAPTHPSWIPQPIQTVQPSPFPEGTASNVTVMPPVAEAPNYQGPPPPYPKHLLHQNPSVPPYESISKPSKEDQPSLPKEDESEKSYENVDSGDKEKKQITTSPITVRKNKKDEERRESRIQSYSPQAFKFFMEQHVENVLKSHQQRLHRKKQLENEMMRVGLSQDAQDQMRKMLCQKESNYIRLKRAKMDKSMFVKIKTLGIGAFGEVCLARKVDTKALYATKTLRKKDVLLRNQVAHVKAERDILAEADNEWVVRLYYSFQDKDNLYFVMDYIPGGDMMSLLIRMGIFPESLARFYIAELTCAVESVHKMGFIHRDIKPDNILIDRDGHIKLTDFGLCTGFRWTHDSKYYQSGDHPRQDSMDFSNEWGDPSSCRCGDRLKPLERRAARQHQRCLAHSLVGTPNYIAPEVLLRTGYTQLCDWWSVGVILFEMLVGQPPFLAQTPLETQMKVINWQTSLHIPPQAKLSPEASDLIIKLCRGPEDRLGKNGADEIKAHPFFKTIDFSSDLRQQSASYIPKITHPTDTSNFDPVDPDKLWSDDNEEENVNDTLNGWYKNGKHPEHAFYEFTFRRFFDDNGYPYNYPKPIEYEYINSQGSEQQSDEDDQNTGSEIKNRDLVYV

[4] = molecular target: Mitogen-activated protein kinase kinase kinase 10 (Homo sapiens) (UniProt Q02779); experiment: Inhibition of MLK2 (unknown origin) at 10 uM after 120 mins P33 radiolabeled kinase activity assay
[5] = molecular target: Serine/threonine-protein kinase N1 (Homo sapiens) (UniProt Q16512); experiment: Inhibition of PKN1 (unknown origin) at 10 uM after 120 mins P33 radiolabeled kinase activity assay
[6] = molecular target: Casein kinase I isoform delta (Homo sapiens) (UniProt P48730); experiment: Inhibition of CK1delta (unknown origin) at 10 uM after 120 mins P33 radiolabeled kinase activity assay
[7] = molecular target: Serine/threonine-protein kinase Nek4 (Homo sapiens) (UniProt P51957); experiment: Inhibition of NEK4 (unknown origin) at 10 uM after 120 mins P33 radiolabeled kinase activity assay
Sequence of Serine/threonine-protein kinase Nek4 (Homo sapiens) (P51957 whole entry, looked up): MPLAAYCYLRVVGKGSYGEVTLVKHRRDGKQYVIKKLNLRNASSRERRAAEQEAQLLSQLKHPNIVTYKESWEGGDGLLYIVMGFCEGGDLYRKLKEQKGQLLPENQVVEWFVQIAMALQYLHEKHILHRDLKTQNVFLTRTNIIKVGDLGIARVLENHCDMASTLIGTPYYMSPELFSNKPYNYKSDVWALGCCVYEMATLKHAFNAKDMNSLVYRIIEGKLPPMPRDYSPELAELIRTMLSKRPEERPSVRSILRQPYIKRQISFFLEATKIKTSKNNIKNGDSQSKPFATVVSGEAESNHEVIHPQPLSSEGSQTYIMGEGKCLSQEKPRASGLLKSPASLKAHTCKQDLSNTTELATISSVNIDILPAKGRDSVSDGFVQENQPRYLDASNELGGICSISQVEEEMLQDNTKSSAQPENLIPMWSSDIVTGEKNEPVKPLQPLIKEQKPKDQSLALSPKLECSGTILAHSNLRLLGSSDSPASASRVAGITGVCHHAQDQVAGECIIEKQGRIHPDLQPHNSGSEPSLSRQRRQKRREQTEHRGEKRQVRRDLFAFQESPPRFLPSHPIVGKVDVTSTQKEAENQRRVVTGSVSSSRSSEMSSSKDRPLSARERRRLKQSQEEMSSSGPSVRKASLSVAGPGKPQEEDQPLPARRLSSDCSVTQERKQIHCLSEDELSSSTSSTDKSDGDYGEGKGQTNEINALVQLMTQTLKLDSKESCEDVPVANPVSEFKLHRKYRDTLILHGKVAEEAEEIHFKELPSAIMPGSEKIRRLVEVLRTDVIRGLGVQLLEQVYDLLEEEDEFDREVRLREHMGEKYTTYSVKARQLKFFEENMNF

Sequence of Casein kinase I isoform delta (Homo sapiens) (P48730 whole entry, looked up, canonical isoform): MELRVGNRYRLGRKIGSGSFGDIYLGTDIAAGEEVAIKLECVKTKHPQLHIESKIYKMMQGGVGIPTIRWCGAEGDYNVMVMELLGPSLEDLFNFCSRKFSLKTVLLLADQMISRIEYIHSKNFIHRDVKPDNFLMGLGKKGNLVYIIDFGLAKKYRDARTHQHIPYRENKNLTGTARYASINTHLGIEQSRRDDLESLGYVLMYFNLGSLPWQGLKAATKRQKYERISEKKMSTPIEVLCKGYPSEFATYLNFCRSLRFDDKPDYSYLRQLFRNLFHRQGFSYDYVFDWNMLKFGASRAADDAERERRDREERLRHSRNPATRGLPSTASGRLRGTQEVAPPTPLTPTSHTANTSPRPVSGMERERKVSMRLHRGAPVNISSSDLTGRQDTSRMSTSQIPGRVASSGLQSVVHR
Sequence of Serine/threonine-protein kinase N1 (Homo sapiens) (Q16512 2-942 limits assumed): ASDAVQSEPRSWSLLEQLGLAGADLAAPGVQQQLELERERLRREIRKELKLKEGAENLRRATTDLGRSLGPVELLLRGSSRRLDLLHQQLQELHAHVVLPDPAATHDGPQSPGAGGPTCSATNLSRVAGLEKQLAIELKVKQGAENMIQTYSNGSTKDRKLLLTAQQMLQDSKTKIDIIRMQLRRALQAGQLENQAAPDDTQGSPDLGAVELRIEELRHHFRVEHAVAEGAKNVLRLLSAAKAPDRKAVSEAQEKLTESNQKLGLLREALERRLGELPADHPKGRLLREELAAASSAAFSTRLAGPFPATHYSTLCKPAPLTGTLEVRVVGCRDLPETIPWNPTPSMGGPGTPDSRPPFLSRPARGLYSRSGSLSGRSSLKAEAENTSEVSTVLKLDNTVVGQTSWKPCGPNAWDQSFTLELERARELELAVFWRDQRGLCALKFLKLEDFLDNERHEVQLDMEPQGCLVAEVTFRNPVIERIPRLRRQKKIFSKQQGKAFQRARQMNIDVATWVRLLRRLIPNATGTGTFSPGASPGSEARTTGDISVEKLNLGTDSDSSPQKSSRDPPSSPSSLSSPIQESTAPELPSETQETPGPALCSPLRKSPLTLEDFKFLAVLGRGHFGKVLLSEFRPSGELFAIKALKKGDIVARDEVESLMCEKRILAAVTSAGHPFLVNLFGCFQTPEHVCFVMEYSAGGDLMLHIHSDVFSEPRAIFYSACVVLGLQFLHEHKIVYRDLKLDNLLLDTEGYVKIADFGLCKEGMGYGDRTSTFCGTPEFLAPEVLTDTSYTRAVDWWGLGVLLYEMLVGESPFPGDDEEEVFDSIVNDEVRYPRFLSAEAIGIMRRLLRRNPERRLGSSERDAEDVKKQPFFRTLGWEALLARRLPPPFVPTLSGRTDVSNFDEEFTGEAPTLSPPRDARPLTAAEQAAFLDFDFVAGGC
Sequence of Mitogen-activated protein kinase kinase kinase 10 (Homo sapiens) (Q02779 whole entry, looked up): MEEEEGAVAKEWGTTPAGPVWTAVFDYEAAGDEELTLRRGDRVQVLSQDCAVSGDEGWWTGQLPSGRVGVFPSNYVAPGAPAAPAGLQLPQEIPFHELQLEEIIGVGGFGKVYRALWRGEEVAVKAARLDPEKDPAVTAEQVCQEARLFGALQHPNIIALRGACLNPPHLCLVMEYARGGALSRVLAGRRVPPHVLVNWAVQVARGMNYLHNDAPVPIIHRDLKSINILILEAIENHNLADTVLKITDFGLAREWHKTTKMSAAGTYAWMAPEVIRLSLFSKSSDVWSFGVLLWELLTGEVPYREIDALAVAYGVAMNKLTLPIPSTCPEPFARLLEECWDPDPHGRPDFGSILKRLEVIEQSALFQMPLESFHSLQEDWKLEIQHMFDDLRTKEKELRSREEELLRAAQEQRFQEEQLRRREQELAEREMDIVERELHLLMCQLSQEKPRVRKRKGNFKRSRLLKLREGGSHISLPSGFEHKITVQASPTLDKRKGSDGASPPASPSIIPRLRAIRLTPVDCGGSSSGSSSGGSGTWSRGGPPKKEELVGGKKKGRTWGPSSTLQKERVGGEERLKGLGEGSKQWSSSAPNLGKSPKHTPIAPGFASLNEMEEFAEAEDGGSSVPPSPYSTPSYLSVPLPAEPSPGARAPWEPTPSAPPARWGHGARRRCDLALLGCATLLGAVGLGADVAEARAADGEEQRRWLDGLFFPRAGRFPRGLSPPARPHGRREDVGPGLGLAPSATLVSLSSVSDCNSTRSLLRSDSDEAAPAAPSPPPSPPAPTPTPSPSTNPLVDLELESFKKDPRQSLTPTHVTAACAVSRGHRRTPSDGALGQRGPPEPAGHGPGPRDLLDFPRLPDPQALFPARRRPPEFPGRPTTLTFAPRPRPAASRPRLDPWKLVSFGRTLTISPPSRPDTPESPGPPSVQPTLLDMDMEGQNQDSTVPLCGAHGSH
Sequence of Receptor-interacting serine/threonine-protein kinase 2 (O43353 whole entry): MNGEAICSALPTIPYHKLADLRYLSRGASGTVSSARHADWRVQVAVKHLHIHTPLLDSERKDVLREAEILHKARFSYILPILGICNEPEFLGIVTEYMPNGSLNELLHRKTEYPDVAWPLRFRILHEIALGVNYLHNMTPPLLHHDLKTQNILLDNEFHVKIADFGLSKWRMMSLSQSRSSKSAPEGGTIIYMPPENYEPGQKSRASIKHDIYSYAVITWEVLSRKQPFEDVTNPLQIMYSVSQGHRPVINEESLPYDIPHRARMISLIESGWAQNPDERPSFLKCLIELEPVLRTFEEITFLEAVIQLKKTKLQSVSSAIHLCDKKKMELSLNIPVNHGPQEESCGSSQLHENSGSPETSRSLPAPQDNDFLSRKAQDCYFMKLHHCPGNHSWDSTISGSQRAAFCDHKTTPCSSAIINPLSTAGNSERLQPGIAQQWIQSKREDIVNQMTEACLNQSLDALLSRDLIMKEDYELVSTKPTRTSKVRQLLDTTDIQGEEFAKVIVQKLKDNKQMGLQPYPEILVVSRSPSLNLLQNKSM

| SMILES | inhibition [1] | IC50 [2] | inhibition [3] | inhibition [4] | inhibition [5] | inhibition [6] | inhibition [7] |
| --- | --- | --- | --- | --- | --- | --- | --- |
| CS(=O)(=O)c1cccc(Nc2nccc(-c3sc(N4CCOCC4)nc3-c3cccc(NS(=O)(=O)c4c(F)cccc4F)c3)n2)c1 | 43.6% | 6.3 nM | 11% | 102% | 5.55% | 20.5% | 59.9% |
| COCCNC(=O)c1ccc2c(c1)nc(-c1cnc(-c3ccc(Cl)cc3)[nH]1)n2CCOC | 1.85% | 12 nM | 3.53% | 8.79% | 10.6% | 77.8% | -2.37% |
| CC(C)(C)c1cc(NC(=O)Nc2ccc(Oc3ccncc3)cc2)no1 | 90.4% | 63 nM | 9.91% | 39.5% | 25.1% | 13.5% | 21.7% |
